This note sets out measurements from patent US9439968B2, “Amine-containing lipidoids and uses thereof” (Massachusetts Institute of Technology, priority 2012, dated 2016).

A short description of data set [1]: Histology (H&E) of liver, spleen, kidneys and pancreas. To be noted: for dose at which liver necrosis was observed: single-dose studies (0-10 mg/kg). The class given is in vivo, mice. The method, then: Organs were harvested from animals that had received various doses of either 304O13 or C12-200 lipid nanoparticles (C12-200 is a control non-degradable lipidoid shown below). Organs were fixed overnight in 4% paraformaldehyde and transferred to 70% ethanol prior to paraffin embedding, sectioning, and H & E staining.
Histological analysis was performed through H&E staining on sections from the liver, spleen, kidneys and pancreas. […] Pancreatic inflammation and islet cell enlargement were detected at C12-200 doses ≧2 mg/kg. […] Multi-dose studies were also conducted in which mice received four injections of 0.3, 1, 2, 3, or 5 mg/kg, once per week for four weeks. […] There was no sign of liver toxicity in any of the 304O13 groups up to 5 mg/kg.

Data set [2] has as its system Factor VII. Briefly: In vivo Factor VII gene silencing in mouse hepatocytes. On the set-up: species or system mice. To be noted: for Relative FVII Activity: tail vein, serum two days post-injection.
Data set [3] can be described thus: Biodistribution of Cy5.5-labeled siRNA (IVIS, Odyssey, confocal). To be noted: liver harvested one hour post-injection.
The test system of data set [4] is CD45. Briefly: In vivo CD45 silencing in leukocyte populations. To be noted: peritoneal cavity and spleen, three days post intravenous delivery.
Data set [5] can be described thus: Serum clinical chemistry. To be noted: 72 hours after single 3 mg/kg dose or four once weekly 3 mg/kg doses. Format: in vivo, mice. The method, then:
The mice had been injected with either a single 3 mg/kg dose of total siRNA or four 3 mg/kg doses (1× per week for four weeks). Blood was drawn for analysis 72 hours post-final injection. There were no statistically significant changes in any of the clinical chemistry parameters for any of the treated groups compared to controls (as evaluated by a student t-test). Error bars represent standard deviation (n=3-5).
(§1) Post-sacrifice, cardiac sticks were immediately performed on animals that had been dosed with either 304O13 or C12-200 lipid nanoparticles. Blood was centrifuged in serum separator tubes at 5,000 rpm for 10 minutes, and serum was analyzed for various hematological parameters. Serum chemistry was evaluated on a Beckman Olympus AU400 Serum Chemistry Analyzer. Cytokines were analyzed using Bio-Plex Pro Mouse Cytokine 23-Plex Assay kits (Luminex Corporation, Austin, Tex.) on the Bio-Plex 200 system, according to manufacturer instructions.
A preliminary safety assessment was conducted on the lead LNP, 304O13, and it was compared to another previously-discovered LNP formulation, C12-200 (Love, K. T. et al. Lipid-like materials for low-dose, in vivo gene silencing. PNAS 107, 1864-1869 (2010)). […] Serum cytokine levels for both materials were assessed in mice four hours after a 3 mg/kg IV bolus injection (total siRNA). […]

The subject of data set [6] is HeLa cells stably modified to express both firefly and Renilla luciferase. The data set can be described thus: In vitro transfection of HeLa cells with lipid nanoparticles (firefly luciferase silencing). The class given is cell-based. To be noted: 40 nM anti-firefly luciferase siRNA formulated with lipidoid; firefly normalized to Renilla; crude lipidoids.
The nature of data set [7]: Nanoparticle characterization. The class given is physicochemical.
The nature of data set [8]: Lipidoid hydrolysis. Format: physicochemical. To be noted: 6 N HCl reflux 24 h; KOH in EtOH/H2O reflux 41 h. How it is done: To a 25 ml round bottom flask was added 304O13 (0.250 g, 0.263 mmol, 1 equiv). For acidic hydrolysis, 10 ml of a solution of 6 N HCl was added to the flask to afford a cloudy heterogeneous solution. The reaction was heated to reflux to afford a clear, homogeneous solution and was stirred at reflux for 24 hours. For basic hydrolysis, 10 ml of a solution of KOH in EtOH/H2O (solution=5.61 g KOH in 47.5 ml EtOH w/2.5 ml distilled H2O) was added to the flask to afford a clear colorless solution. The reaction was heated to reflux and stirred for 41 h. […] Reactions were concentrated to dryness under reduced pressure and diluted with CDCl3. The basic reaction was filtered to remove excess KOH. Proton NMR analysis was performed in CDCl3. Proton nuclear magnetic resonance spectra were recorded with a Bruker Avance 400 spectrometer, are depicted in parts per million on the δ scale, and are referenced from the residual protium in the NMR solvent (CDCl3: δ 7.26 (CHCl3).
The acrylate-based lipidoids provided herein also contain hydrolysable ester moieties, functional groups which are commonly incorporated into delivery vehicles to promote physiological degradation (Staubli, A., Ron, E. & Langer, R. J. Am. Chem. Soc. 112, 4419-4424 (1990); van Dijkhuizen-Radersma, et al. Biomaterials 23, 4719-4729 (2002); Geng, Y. & Discher, D. E. J. Am. Chem. Soc. 127, 12780-12781 (2005)).

The nature of data set [9]: Serum cytokine profiling. The class given is in vivo, mice. To be noted: four hours after 3 mg/kg IV bolus (total siRNA). The method, then: as §1
Cytokine analysis was done by injecting either 304O13 or C12-200 nanoparticles at an siRNA dose of 3 mg/kg. Four hours post-injection, blood was harvested via cardiac stick and serum was isolated. Cytokine levels were quantified using an ELISA assay.
A preliminary safety assessment was conducted on the lead LNP, 304O13, and it was compared to another previously-discovered LNP formulation, C12-200 (Love, K. T. et al. Lipid-like materials for low-dose, in vivo gene silencing. PNAS 107, 1864-1869 (2010)). […] Serum cytokine levels for both materials were assessed in mice four hours after a 3 mg/kg IV bolus injection (total siRNA). […] Clinical chemistry parameters were evaluated for both materials 72 hours after a single dose of 3 mg/kg and after four once weekly doses of 3 mg/kg each.

[10] abbreviates: multi-dose, four injections once per week for four weeks.

Consider `CCCCCCCCCCCCCOC(=O)CCN(C)CCN(CCN(C)CCC(=O)OCCCCCCCCCCCCC)CCN(C)CCC(=O)OCCCCCCCCCCCCC` [Lipidoid 304O13], for which the “doses with no sign of liver toxicity” value in data set [1] (setting [10]) is on record as “up to 5 mg/kg”. In data set [1] (single-dose studies), the “dose at which a small amount of apoptosis in splenic red pulp was observed” value amounted to 10 mg/kg. Besides, the “dose at which liver necrosis was observed” value in data set [1] stood at 10 mg/kg. Also, the “Relative FVII Activity” value in data set [2] (0.1 mg/kg siRNA) is 0.54; in data set [2] (0.5 mg/kg siRNA) it was 0.23; in data set [2] (2 mg/kg siRNA) it was 0.02; in data set [2] (5 mg/kg siRNA) it was 0.01. The “time for Factor VII levels to return to baseline” value in [2] (optimized 304O13, single injection at 0.1 mg/kg) is at most 18 days. Also, the “siRNA distribution within liver (confocal microscopy)” value in [3] is reported as “siRNA accumulation throughout nearly all hepatocellular tissue”. The “CD45 silencing in immune cells” value in [4] is listed as “most robust CD45 silencing”. Also, the “albumin, ALT, AST, ALP, total bilirubin, GGT” value in data set [5] is “no toxicologically significant increases”. The “Relative Luciferase Activity” value in data set [6] is 0.08. Besides, the “siRNA Entrapment” value in data set [7] (lipid nanoparticle, RiboGreen RNA assay) is given as 84.2%. The same molecule came in with a Diameter in [7] (lipid nanoparticle, average effective diameter) of 86.0 nm. In addition, the “Zeta Potential” value in data set [7] (lipid nanoparticle, neutral pH) was 13.7 mV. The same molecule came in with a pKa in data set [7] (nanoparticle surface, TNS assay) of 6.8. Further, the “degradation under hydrolytic conditions (1H NMR, TLC)” value in [8] is “degraded to the anticipated alkyl-alcohol product”.

Turning to `CCCCCCCCCCCCCOC(=O)CCN(CCC(=O)OCCCCCCCCCCCCC)CC1CCCN(C)C1` (stereo not shown) [Lipidoid 235O13], in data set [2] (5 mg/kg siRNA), the “Relative FVII Activity” value was 0.39. The “Relative Luciferase Activity” value in data set [6] came to 0.42.

In the case of `CCCCCCCCCCCCCOC(=O)CCN(C)CCCN(CC)CCCN(C)CCC(=O)OCCCCCCCCCCCCC` [Lipidoid 218O13], in data set [2] (5 mg/kg siRNA), the “Relative FVII Activity” value came out at 0.73. In addition, in [6], the “Relative Luciferase Activity” value is 0.41.

Regarding `CCCCCCCCCCCCCCOC(=O)CCN(CCC(=O)OCCCCCCCCCCCCCC)[C@@H](CO)[C@H](C)O` [Lipidoid 196O14], the “Relative FVII Activity” value in [2] (5 mg/kg siRNA) worked out at 0.82. Further, the “Relative Luciferase Activity” value in data set [6] worked out at 0.38.

In the case of `CCCCCCCCCCCCCOC(=O)CCN(CCC(=O)OCCCCCCCCCCCCC)CC1CCCN1C` (stereo not shown) [Lipidoid 232O13], in data set [6], the “Relative Luciferase Activity” value came to 0.39.

Consider `CCCCCCCCCCCCOC(=O)CCN(CCC(=O)OCCCCCCCCCCCC)CC1(C)CC(N(CCC(=O)OCCCCCCCCCCCC)CCC(=O)OCCCCCCCCCCCC)CC(C)(C)C1` (stereo not shown) [Lipidoid 315O12], for which the “Relative FVII Activity” value in [2] (5 mg/kg siRNA) was 0.99. Further, the “CD45 silencing in immune cells” value in [4] is recorded as “modest CD45 silencing”. Besides, the “Relative Luciferase Activity” value in data set [6] is listed as 0.30.

With `CCCCCCCCCCCCOC(=O)CCN(CCC(=O)OCCCCCCCCCCCC)C[C@@H]1CCCN1CCC(=O)OCCCCCCCCCCCC` [Lipidoid 154O12], the “Relative FVII Activity” value in data set [2] (5 mg/kg siRNA) worked out at 0.99. In addition, in [6], the “Relative Luciferase Activity” value came out at 0.33.

For `CCCCCCCCCCCCCOC(=O)CCN(CCC(=O)OCCCCCCCCCCCCC)CCN(C)CCCN(C)CCN(CCC(=O)OCCCCCCCCCCCCC)CCC(=O)OCCCCCCCCCCCCC` [Lipidoid 503O13], the “FVII knockdown with control (non-targeting) siRNA” value in data set [2] (LNP encapsulating control siRNA) is reported as “did not result in FVII knockdown”. Also, in [6], the “Relative Luciferase Activity” value was determined as 0.07.

As for `CCCCCCCCCCCCCOC(=O)CCN(CCC(=O)OCCCCCCCCCCCCC)CCN(CCC(=O)OCCCCCCCCCCCCC)CCN(CC)CC` [Lipidoid 123O13], the “Relative FVII Activity” value in data set [2] (0.1 mg/kg siRNA) came to 0.86; in data set [2] (0.5 mg/kg siRNA) it was 0.50; in data set [2] (2 mg/kg siRNA), 0.00; in data set [2] (5 mg/kg siRNA), 0.00. In addition, in data set [6], the “Relative Luciferase Activity” value was 0.22.

As to `CCCCCCCCCCCCCCOC(=O)CCN(CCC(=O)OCCCCCCCCCCCCCC)CCC1CCN(CCC(=O)OCCCCCCCCCCCCCC)CC1` [Lipidoid 205O14], the “Relative FVII Activity” value in data set [2] (5 mg/kg siRNA) came to 0.83. In addition, in data set [6], the “Relative Luciferase Activity” value was found to be 0.43.

Take `CCCCCCCCCCC(O)CN(CCN1CCN(CCN(CC(O)CCCCCCCCCC)CC(O)CCCCCCCCCC)CC1)CCN(CC(O)CCCCCCCCCC)CC(O)CCCCCCCCCC` (stereo not shown) [Lipidoid C12-200, reference compound]: the “doses at which liver necrosis and inflammation were observed” value in [1] (setting [10]) was at least 1 mg/kg. Besides, the “doses at which pancreatic inflammation and islet cell enlargement were detected” value in data set [1] (single-dose studies) is given as at least 2 mg/kg. Moreover, the “dose at which liver necrosis was observed” value in [1] stood at 7.5 mg/kg. In addition, in [5], the “albumin, ALT, AST, ALP, total bilirubin, GGT” value is given as “no toxicologically significant increases”. The “serum IL-6, IP-10, KC and MCP-1 levels vs PBS control and 304O13 groups” value in [9] is “elevated”.

For orientation: pKa means the negative logarithm of the acid dissociation constant. A higher pKa goes with a group that holds its proton tightly.
